Measured values reported in ChEMBL document CHEMBL4428097, “Gallic acid induces apoptosis in EGFR-mutant non-small cell lung cancers by accelerating EGFR turnover” (Bioorg Med Chem Lett, 2016).
The source made the active and inactive calls. No cut-off for these calls is given here.

What was measured:
[1] = tested on: NCI-H1650; assay: Inhibition of EGFR mutant-mediated AKT phosphorylation in human NCI-H1650 cells harboring EGFR-mutant at 30 and 60 uM measured after 24 hrs by immunoblotting analysis; type: cell-based
[2] = tested on: NCI-H1975; assay: Antiproliferative activity against human NCI-H1975 cells harboring EGFR-mutant assessed as cell viability measured after 24 hrs; type: functional, cell-based
[3] = tested on: NCI-H1650; assay: Antiproliferative activity against human NCI-H1650 cells harboring EGFR-mutant assessed as cell viability measured after 24 hrs; type: functional, cell-based
[4] = tested on: A549; assay: Antiproliferative activity against human A549 cells harboring wild-type EGFR assessed as cell viability at 30 and 60 uM measured after 24 hrs; type: functional, cell-based
[5] = tested on: NCI-H460; assay: Antiproliferative activity against human NCI-H460 cells harboring wild-type EGFR assessed as cell viability at 30 and 60 uM measured after 24 hrs; type: functional, cell-based
[6] = tested on: NCI-H1975; assay: Induction of apoptosis in human NCI-H1975 harboring EGFR-mutant cells assessed as cell death measured after 24 hrs by Annexin-V/PI staining based analysis; type: functional
[7] = tested on: NCI-H1650; assay: Induction of apoptosis in human NCI-H1650 cells harboring EGFR-mutant assessed as cell death measured after 24 hrs by Annexin-V/PI staining based analysis; type: functional
[8] = tested on: A549; assay: Induction of apoptosis in human A549 cells harboring wild-type EGFR assessed as cell death at 30 and 60 uM measured after 24 hrs by Annexin-V/PI staining based analysis; type: functional
[9] = tested on: NCI-H460; assay: Induction of apoptosis in human NCI-H460 cells harboring wild-type EGFR assessed as cell death at 30 and 60 uM measured after 24 hrs by Annexin-V/PI staining based analysis; type: functional
[10] = tested on: NCI-H1975; assay: Increase in cleaved caspase3 level in human NCI-H1975 cells harboring EGFR-mutant at 30 and 60 uM by immunoblotting analysis; type: functional, cell-based
[11] = tested on: NCI-H1650; assay: Increase in cleaved caspase3 level in human NCI-H1650 cells harboring EGFR-mutant at 30 and 60 uM by immunoblotting analysis; type: functional, cell-based
[12] = tested on: A549; assay: Increase in cleaved caspase3 level in human A549 cells harboring wild-type EGFR at 30 and 60 uM by immunoblotting analysis; type: functional, cell-based
[13] = tested on: NCI-H460; assay: Increase in cleaved caspase3 level in human NCI-H460 cells harboring wild-type EGFR at 30 and 60 uM by immunoblotting analysis; type: functional, cell-based
[14] = tested on: NCI-H1975; assay: Increase in PARP level in human NCI-H1975 cells harboring EGFR-mutant at 30 and 60 uM by immunoblotting analysis; type: functional, cell-based
[15] = tested on: NCI-H1650; assay: Increase in PARP level in human NCI-H1650 cells harboring EGFR-mutant at 30 and 60 uM by immunoblotting analysis; type: functional, cell-based
[16] = tested on: A549; assay: Increase in PARP level in human A549 cells harboring wild-type EGFR at 30 and 60 uM by immunoblotting analysis; type: functional, cell-based
[17] = tested on: NCI-H460; assay: Increase in PARP level in human NCI-H460 cells harboring wild-type EGFR at 30 and 60 uM by immunoblotting analysis; type: functional, cell-based
[18] = tested on: NCI-H1975; assay: Effect on ROS level in human NCI-H1975 cells harboring EGFR-mutant at 60 uM; type: functional, cell-based
[19] = tested on: NCI-H1650; assay: Effect on ROS level in human NCI-H1650 cells harboring EGFR-mutant at 60 uM; type: functional, cell-based
[20] = tested on: NCI-H1975; assay: Induction of apoptosis in human NCI-H1975 cells harboring EGFR-mutant assessed as cell death at 60 uM in presence of NAC; type: functional, cell-based
[21] = tested on: NCI-H1650; assay: Induction of apoptosis in human NCI-H1650 cells harboring EGFR-mutant assessed as cell death at 60 uM in presence of NAC; type: functional, cell-based
[22] = tested on: NCI-H1975; assay: Decrease in EGFR level in human NCI-H1975 cells harboring EGFR-mutant measured after 24 hrs by immunoblotting analysis; type: functional, cell-based
[23] = tested on: NCI-H1975; assay: Inhibition of EGFR mutant-mediated AKT phosphorylation in human NCI-H1975 cells harboring EGFR-mutant at 30 and 60 uM measured after 24 hrs by immunoblotting analysis; type: cell-based
[24] = tested on: NCI-H1975; assay: Inhibition of EGFR mutant-mediated ERK phosphorylation in human NCI-H1975 cells harboring EGFR-mutant at 30 and 60 uM measured after 24 hrs by immunoblotting analysis; type: cell-based
[25] = tested on: NCI-H1650; assay: Decrease in EGFR level in human NCI-H1650 cells harboring EGFR-mutant at 30 and 60 uM by […]; type: functional, cell-based
[26] = tested on: NCI-H1650; assay: Inhibition of EGFR mutant-mediated ERK phosphorylation in human NCI-H1650 cells harboring EGFR-mutant measured after 24 hrs by immunoblotting analysis; type: cell-based
[27] = tested on: A549; assay: Decrease in EGFR level in human A549 cells harboring wild-type EGFR at 30 and 60 uM measured after 24 hrs by immunoblotting analysis; type: functional, cell-based
[28] = biological target: Epidermal growth factor receptor (Homo sapiens) (UniProt P00533); assay: Inhibition of EGFR-mediated AKT phosphorylation in human A549 cells harboring wild-type EGFR at 30 and 60 uM measured after 24 hrs by immunoblotting analysis; type: cell-based
Epidermal growth factor receptor (Homo sapiens), sequence (P00533 whole entry): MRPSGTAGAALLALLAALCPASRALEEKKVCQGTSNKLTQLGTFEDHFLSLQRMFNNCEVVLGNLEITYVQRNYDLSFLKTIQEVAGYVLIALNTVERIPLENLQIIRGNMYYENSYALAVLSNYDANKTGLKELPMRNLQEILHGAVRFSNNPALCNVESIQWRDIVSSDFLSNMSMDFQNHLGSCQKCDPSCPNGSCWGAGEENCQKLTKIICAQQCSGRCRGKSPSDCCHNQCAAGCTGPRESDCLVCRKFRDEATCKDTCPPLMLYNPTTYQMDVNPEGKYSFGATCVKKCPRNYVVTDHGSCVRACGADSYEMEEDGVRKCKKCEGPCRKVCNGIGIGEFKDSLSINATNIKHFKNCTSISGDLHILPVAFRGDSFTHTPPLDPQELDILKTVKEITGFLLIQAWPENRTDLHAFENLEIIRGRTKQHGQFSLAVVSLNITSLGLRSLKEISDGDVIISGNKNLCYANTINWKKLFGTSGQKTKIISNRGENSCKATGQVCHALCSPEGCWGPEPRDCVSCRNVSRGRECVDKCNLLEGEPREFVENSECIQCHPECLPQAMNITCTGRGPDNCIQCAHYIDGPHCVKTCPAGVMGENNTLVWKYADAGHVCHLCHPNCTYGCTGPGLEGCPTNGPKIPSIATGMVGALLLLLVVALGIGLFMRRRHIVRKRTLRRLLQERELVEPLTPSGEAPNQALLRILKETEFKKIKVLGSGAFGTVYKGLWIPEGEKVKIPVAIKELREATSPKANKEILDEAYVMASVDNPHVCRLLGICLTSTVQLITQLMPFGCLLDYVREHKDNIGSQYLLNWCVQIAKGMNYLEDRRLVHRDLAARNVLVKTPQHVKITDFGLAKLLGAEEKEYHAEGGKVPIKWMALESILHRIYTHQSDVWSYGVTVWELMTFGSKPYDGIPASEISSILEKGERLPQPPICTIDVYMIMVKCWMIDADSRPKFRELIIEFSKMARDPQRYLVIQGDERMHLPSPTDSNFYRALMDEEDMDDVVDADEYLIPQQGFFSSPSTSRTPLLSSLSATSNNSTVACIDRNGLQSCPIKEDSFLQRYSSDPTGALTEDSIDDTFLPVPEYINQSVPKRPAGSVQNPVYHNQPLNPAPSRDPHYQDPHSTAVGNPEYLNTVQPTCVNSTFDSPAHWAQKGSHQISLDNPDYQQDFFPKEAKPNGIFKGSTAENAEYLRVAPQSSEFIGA

[29] = biological target: Epidermal growth factor receptor (Homo sapiens) (UniProt P00533); assay: Inhibition of EGFR-mediated ERK phosphorylation in human A549 cells harboring wild-type EGFR at 30 and 60 uM measured after 24 hrs by immunoblotting analysis; type: cell-based
[30] = tested on: NCI-H460; assay: Decrease in EGFR level in human NCI-H460 cells harboring wild-type EGFR at 30 and 60 uM measured after 24 hrs by immunoblotting analysis; type: functional, cell-based
[31] = biological target: Epidermal growth factor receptor (Homo sapiens) (UniProt P00533); assay: Inhibition of EGFR-mediated AKT phosphorylation in human NCI-H460 cells harboring wild-type EGFR at 30 and 60 uM measured after 24 hrs by immunoblotting analysis; type: cell-based
[32] = biological target: Epidermal growth factor receptor (Homo sapiens) (UniProt P00533); assay: Inhibition of EGFR-mediated ERK phosphorylation in human NCI-H460 cells harboring wild-type EGFR at 30 and 60 uM measured after 24 hrs by immunoblotting analysis; type: cell-based
[33] = tested on: NCI-H1975; assay: Effect on EGFR mRNA levels in human NCI-H1975 cells harboring EGFR-mutant at 30 uM by quantitative RT-PCR method; type: functional, cell-based
[34] = tested on: NCI-H1975; assay: Induction of EGFR turnover in human NCI-H1975 cells harboring EGFR-mutant at 60 uM measured after 24 hrs in presence of proteosome inhibitor bortezomib by immunoblotting analysis; type: functional, cell-based
[35] = tested on: PC-9; assay: Antiproliferative activity against human gefitinib-resistant PC9 cells harboring EGFR T790M mutant assessed as cell viability measured after 24 hrs; type: functional, cell-based
[36] = tested on: PC-9; assay: Antiproliferative activity against human erlotinib-resistant PC9 cells harboring EGFR T790M mutant assessed as cell viability measured after 24 hrs; type: functional, cell-based
[37] = tested on: PC-9; assay: Induction of apoptosis in human gefitinib-resistant PC9 cells harboring EGFR T790M mutant assessed as cell death at 30 and 60 uM measured after 24 hrs by Annexin-V/PI staining based analysis; type: functional
[38] = tested on: PC-9; assay: Induction of apoptosis in human erlotinib-resistant PC9 cells harboring EGFR T790M mutant assessed as cell death at 30 and 60 uM measured after 24 hrs by Annexin-V/PI staining based analysis; type: functional
[39] = tested on: PC-9; assay: Decrease in EGFR level in human gefitinib-resistant PC9 cells harboring EGFR T790M mutant at 30 and 60 uM measured after 24 hrs by immunoblotting analysis; type: functional, cell-based
[40] = tested on: PC-9; assay: Decrease in EGFR level in human erlotinib-resistant PC9 cells harboring EGFR T790M mutant at 30 and 60 uM measured after 24 hrs by immunoblotting analysis; type: functional, cell-based
[41] = tested on: PC-9; assay: Increase in cleaved caspase3 level in human gefitinib-resistant PC9 cells harboring EGFR T790M mutant at 30 and 60 uM by immunoblotting analysis; type: functional, cell-based
[42] = tested on: PC-9; assay: Increase in cleaved caspase3 level in human erlotinib-resistant PC9 cells harboring EGFR T790M mutant at 30 and 60 uM by immunoblotting analysis; type: functional, cell-based
[43] = tested on: PC-9; assay: Increase in PARP level in human gefitinib-resistant PC9 cells harboring EGFR T790M mutant at 30 and 60 uM by immunoblotting analysis; type: functional, cell-based
[44] = tested on: PC-9; assay: Increase in PARP level in human erlotinib-resistant PC9 cells harboring EGFR T790M mutant at 30 and 60 uM by immunoblotting analysis; type: functional, cell-based
[45] = tested on: NCI-H1975; assay: Induction of EGFR turnover in human NCI-H1975 cells harboring EGFR-mutant assessed as receptor half life […] at 60 uM in presence of cycloheximide by immunoblotting analysis; type: functional, cell-based

O=C(O)c1cc(O)c(O)c(O)c1
inhibition [1]: Active | Activity [2]: Dose-dependent effect | Activity [3]: Dose-dependent effect | Activity [4]: inactive | Activity [5]: inactive | Activity [6]: Dose-dependent effect | Activity [7]: Dose-dependent effect | Activity [8]: Active | Activity [9]: Active | Activity [10]: Active | Activity [11]: Active | Activity [12]: inactive | Activity [13]: inactive | Activity [14]: Active | Activity [15]: Active | Activity [16]: inactive | Activity [17]: inactive | Activity [18]: inactive | Activity [19]: inactive | Activity [20]: Active | Activity [21]: Active | inhibition [22]: Dose-dependent effect | inhibition [23]: Active | inhibition [24]: Active | inhibition [25]: Dose-dependent effect | inhibition [26]: Active | inhibition [27]: inactive | inhibition [28]: inactive | inhibition [29]: inactive | inhibition [30]: inactive | inhibition [31]: inactive | inhibition [32]: inactive | Activity [33]: inactive | Activity [34]: inactive | Activity [35]: Dose-dependent effect | Activity [36]: Dose-dependent effect | Activity [37]: Active | Activity [38]: Active | Activity [39]: Active | Activity [40]: Active | Activity [41]: Active | Activity [42]: Active | Activity [43]: Active | Activity [44]: Active | Activity [45]: inactive
